# Structures can show the parent of a compound that is named as a salt.
# Experiments:
# [1] = test system: HEK293A wild-type cells; test: CellTiter-Glo cell viability assay, titration of antibiotic concentrations (killing curve); assay type: cell-based, human; conditions: HEK293A wild-type cells
# Description: (§1) HEK293A wild-type cells were treated for 72 h with various concentrations of the antibiotics (a) hygromycin B and (b) puromycin, respectively. Cell viability was determined with the CellTiter-Glo assay.
# (§2) The CellTiter-Glo assay was used to determine the number of viable cells in a sample. The method is based on the quantification of the ATP amount as an indicator of metabolically active cells. The CellTiter-Glo Luminescent Cell Viability Assay Kit from Promega was used for the experiments. The CellTiter-Glo reagent was freshly prepared before each experiment. For this purpose, the substrate, which contains inter alia luciferin and a luciferase, was dissolved in the accompanying buffer. After direct addition to the medium of the cells, lysis of the cells occurs first. Viable cells produce ATP in their mitochondria, which is thereby released. In the presence of ATP, the luciferin is converted by the UltraGlo r-luciferase. This produces a stable luminescence signal which is proportional to the amount of ATP present and thus to the number of viable cells.
# (§3) The assay was used to optimize transfection and to titrate the optimal antibiotic concentrations of hygromycin B and puromycin for post-transfection selection. In all assays, cells were seeded in a black flat bottom 96-well plate with a transparent bottom. When titrating the antibiotic concentrations, 7,500 cells were seeded per well. The next day, the cells were treated with various concentrations of the antibiotic. After […], the viability of the cells was determined by the assay in which 100 μL of the CellTiter-Glo reagent was added to each well. Subsequently, the plate was shaken on a plate shaker for 2 min. at 200 rpm. After incubation in the dark for 10 minutes, the luminescence signal was measured on the luminometer.
# [2] = as above; assay type: cell-based, human; conditions: human
# Description: as §1, §2, §3
SMILES,"cell viability ([1]; 20 μg/mL, 72 h)",cell viability expected at selection concentration ([1]; 50 μg/mL),"viability at 72 h, 2 μg/mL ([2]; cell viability) [%]","viability at 72 h, 2 μg/mL ([2]; cell viability expected at selection concentration) [%]"
"CN[C@H]1C[C@@H](N)[C@H](O)[C@@H](O[C@@H]2O[C@H](CO)[C@H](O)[C@@H]3OC4(O[C@H]23)O[C@H]([C@@H](N)CO)[C@H](O)[C@H](O)[C@H]4O)[C@@H]1O (stereo partly shown) [hygromycin B, Hygromycin B]",less than 20%,about 12%,–,–
"COc1ccc(C[C@H](N)C(=O)N[C@H]2[C@@H](O)[C@H](n3cnc4c(N(C)C)ncnc43)O[C@@H]2CO)cc1 [puromycin, Puromycin dihydrochloride]",–,–,< 15,~12
